One test deals with LC3 and GABARAP families. The note with it: cited from earlier work. From the text:
However, despite the ever‐increasing number of LC3/GABARAP interaction partners identified and perhaps the over‐reliance on LC3B as the main marker of autophagosomes, there is now emerging distinct roles of each LC3 and GABARAP subfamily. For example, both LC3 and GABARAP families are essential for autophagy flux 29; however, LC3s were reported to be involved in phagophore extension and GABARAPs required for autophagosome closure 29. Moreover, GABARAP can activate ULK1 complex to initiate autophagy, irrespective of its conjugation status 28. Indeed, this is also reflected in C. elegans homolog ...

For test [1], the system named is 6xHis-tagged LC3B and 6xHis-tagged GABARAP. Nature of the test: Peptide array, preference GABARAP versus LC3B (absorbance ratio). The class given is binding, human. Particulars: absorbance GABARAP/LC3B or LC3B/GABARAP, cut-off 1.5-fold, mean of n = 3, Figs 1A, EV1B and C. An excerpt: A high number of autophagy receptors or adaptor structures have been reported, yet the basis for their selective interaction with individual members of the ATG8 family is not well understood. We speculated whether the LIR motif alone is able to confer selectivity towards a mATG8 subfamily and whether we could derive a subfamily consensus motif from analysis of known mATG8 interaction partners. To address this question, we screened an array of peptides (presented in Fig EV1A and described in Materials and Methods) with the LIR sequences of 30 known and validated autophagy receptors and adaptors (Table 1) against all six human mATG8s for binding (Figs 1A and EV1B and C). In brief, biotinylated peptides were immobilized on streptavidin‐coated 96‐well plates and incubated with His6‐tagged mATG8 proteins. After washing steps, peptide‐bound mATG8 was detected in an ELISA reader using anti‐His antibodies directly conjugated to HRP (horse radish peroxidase; Fig EV1A).
Dashed red line depicts 1.5‐fold change cut‐off.
Due to the wide range of affinities of various LIR sequences towards the LC3/GABARAP proteins, we have normalized our results by dividing values for LC3B interaction by the corresponding value for interaction with GABARAP (Fig 1A, purple bars) and vice versa (Fig 1A, blue bars) to highlight the potential subfamily selectivity of each LIR sequence tested. We classified ratios greater than 1.5‐fold as an indication of a preferential interaction towards that particular LC3 or GABARAP family member. […] Using this information, we generated a sequence plot (Fig 1B) to ascertain whether there were any common sequence features of the GABARAP‐specific interaction proteins. In addition to the 12 sequences identified in this experiment as preferential GABARAP subfamily interactors, we also included known GABARAP interactors that were not included in our screen (ALFY and KBTBD7). […] The previously identified PLEKHM1‐LIR 19 has a high degree of similarity to this sequence. […] However, it is unclear whether this is the case in vivo.
Biotinylated peptides (JPT, Germany) were immobilized on streptavidin‐coated 96‐well plates (#436014; Thermo Scientific) in 100 μl PBS containing 0.1% Tween‐20 (PT) and 1% BSA (PTB) overnight on a shaker at 8°C. After three washing steps with 200 μl PT, 100 μl of 1 μM HIS6‐tagged mATG fusion proteins isolated from E. coli in PTB was incubated with the immobilized peptides for 1 h at 8°C. After three washing steps with 200 μl PT, HIS6‐ATG8 bound to peptides was detected after 1‐h incubation with anti‐HIS‐HRP antibody (JP‐A00612; Genscript; 1:5,000 in 100 μl PTB) with the help of TMB substrate Reagent Set (BD OptEIA; 75 μl). The reaction (blue coloration) was stopped by addition of 60 μl 1 M H3PO4. Samples were analysed on a Synergy H1 ELISA reader from BioTek at 450 nm.

For another test, the system named is 6xHis-tagged LC3B. Kind of test: Peptide array (ELISA), LC3B. The note with it: mean ± SEM n = 5, Fig 4B.
The target in the next test is T1, LC3B (Homo sapiens, UniProt Q9GZQ8).
T1 construct: modified Ub-leader (ubiquitin fusion leader) (N); made in house; host or cells: E. coli NEB T7 Express
Kind of test: ITC titration of PLEKHM1-LIR peptides into LC3B. The note with it: for ΔH: VP-ITC, 50 mM Na2HPO4, 100 mM NaCl. The class given is binding. On the procedure:
(§1) The genes for the truncated LC3A^2–121, LC3C^8–125, GABARAP^2–117 and GABARAP‐L1^2–117 proteins were cloned into pET30ΔSE vector between the BamHI and XhoI sites using previously established protocols 38. The chimeric constructs of the PLEKHM1‐LIR attached to the LC3A, GABARAP and GABARAP‐L1 proteins were prepared by inserting the oligonucleotide sequence corresponding to the PLEKHM1‐LIR peptide (P^629[…]^638) and glycine–serine linker into the BamHI site of the pET30ΔSE vector, placing the PLEKHM1‐LIR at the N‐terminal of the mature chimeric protein (similar to 31, 38). For the expression of human LC3 and GABARAP proteins for ITC and NMR experiments, plasmids with appropriate modified Ub‐leaders in pET vectors were used 39. Gene, encoding PLEKHM1‐LIR peptide, was ordered as synthetic oligonucleotides (Eurofins Genomics GmbH) and cloned into the pET39_Ub63_ vector 39 by NcoI–BamHI restriction sites. After TEV cleavage, the resulting peptide has the amino acid sequence GAMG‐P^629[…]^642, where the first four residues (GAMG) are the cloning artefact.
(§2) The chimeric constructs were expressed as a His‐tag fusion protein in E. coli BL21(DE3) cells. The cells were induced with 0.3 mM IPTG at OD600 0.6 for 16 h at 26°C. The cell pellets were lysed using mechanical sonication in lysis buffer (20 mM Tris–HCl pH 9.0, 100 mM NaCl, 10 mM imidazole, supplemented with 0.1% Triton X‐100). The proteins were purified using Ni‐NTA beads (GE Healthcare) and the His‐tag was cleaved using thrombin (Invitrogen) at room temperature for 16 h. The last step was gel filtration chromatography using a Superdex S200/300 GL column (GE Healthcare). The proteins were concentrated using spin concentrators (Vivaspin). For ITC and NMR studies, the non‐labelled and stable isotopes labelled LC3 and GABARAP proteins were obtained based on the protocols described elsewhere 30, 39. Here, E. coli NEB T7 Express culture transformed with corresponding plasmids were grown till OD600 nm = 1.0 and protein expression was induced with 0.2 mM IPTG. The cultures were incubated at 25°C for 8–12 h before cell harvesting. Isolation and purification procedures were similar to those reported in Ref. 22, 40. Before experiments, all proteins and peptides were equilibrated with a buffer containing 50 mM Na2HPO4, 100 mM NaCl at pH 7.0, and supplied with 5 mM protease inhibitor cocktail.
(§3) The protocol for preparation of non‐labelled and ^13C,^15N‐labelled PLEKHM1‐LIR peptide was slightly modified to achieve highest yield of the peptide. The 50 ml M9 culture was inoculated with NEB T7 cell transformed with pET39_Ub63‐PLEKHM1‐LIR plasmid and grown overnight at 37°. The collected cells were resuspended in 2 l of either LB or M9 media contained 1.5 g ^15N‐labelled NH4Cl and 3.0 g of ^13C‐labelled glucose. The cultures were grown at 37° till A(600 nm) = 0.9 and supplied with 1 mM of IPTG to induce Ub63‐PLEKHM1‐LIR overexpression (3 h at 37°). After that cells were harvested by centrifugation, re‐suspended in buffer contained 50 mM Tris–HCl pH = 7.9, 200 mM NaCl, 5% glycerol, 0.1 mg/ml DNase A and 4 mM protease inhibitor cocktail. After cell lysis by French press, debris was removed by centrifugation and clear supernatant was applied onto the column contained Ni‐NTA Sepharose equilibrated with the loading buffer (50 mM Tris–HCl pH = 7.9, 250 mM NaCl, 1% glycerol and 20 mM imidazole). Elution was performed with 400 mM imidazole in the same buffer. An aliquot of pure Ub63‐PLEKHM1‐LIR fractions was further purified by gel filtration on Superdex75 26 × 60 column for control ITC and analytical size exclusion chromatography experiments, remaining fusion protein was processed with the TEV‐protease and PLEKHM1‐LIR peptide was purified to 95% purity by reverse Ni‐NTA chromatography and followed gel filtration on Superdex75 26 × 60 column. Peak maximum of peptide was detected at […] (void volume 115 ml). Pure peptide was concentrated in Amicon concentrators with cut‐off of 3 kDa (> 95% retention). […]
(Isothermal titration calorimetry measures the heat released or taken up as one component is titrated into another.)

In a further test the target is T2, GABARAP (Homo sapiens, UniProt O95166).
T2 construct: modified Ub-leader (ubiquitin fusion leader) (N); made in house; host or cells: E. coli NEB T7 Express
Nature of the test: ITC titration of PLEKHM1-LIR peptides into GABARAP. The class given is binding. The note with it: for ΔH: VP-ITC, one-site model, 0.4 mM peptide into 0.020 mM protein, 50 mM Na2HPO4, 100 mM NaCl. The procedure:
as §1, §2, §3

The mark [2] stands for this setting: ITC, 25°C, one-site model, 0.4 mM peptide into 0.020 mM protein, pH 7.0.
Setting [3] is: weak interaction: N fixed to 1 upon fitting.

pKd: −log10 of the molar value. Entries after “also recorded” stand apart in the source; their conditions may differ. Marks after values point to notes of the source that are not given here. Ends that are not written are not given here.

T2 sequence (O95166 whole entry, the tested form may be a part): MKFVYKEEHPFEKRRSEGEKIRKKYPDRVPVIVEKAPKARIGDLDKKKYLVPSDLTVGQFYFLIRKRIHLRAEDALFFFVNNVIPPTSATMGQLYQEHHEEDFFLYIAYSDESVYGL

With “DAVFDIITD [FYCO1, LIR peptide 1277–1285; in b48 the protein]”, the subfamily specificity result with LC3 and GABARAP families is on record as “LC3A‐specific adaptor”.
Take DDFWVRVAP [KTBD6, LIR peptide 665–673]: the results for the “preference GABARAP versus LC3B” value in test [1] (listed as KBTBD6) and in test [1] (listed as KBTDB6) were “strong preference for GABARAP versus LC3B” and “clear specificity towards GABARAP versus LC3B”, respectively.
Turning to “DDSYEVLDL [FUNDC1, LIR peptide 152–160 (so in the source)]”, the “preference GABARAP versus LC3B” value in test [1] is recorded as “preferentially interacted with the LC3 group; also recorded: only LC3‐selective LIR; also recorded: only LC3B‐specific LIR”.
For EDEWCFLQY, the “interaction with LC3B, core motif combinations” value in the test with 6xHis-tagged LC3B is listed as “increased the interaction of PLEKHM1‐LIR with LC3B”.
As to EDEWCILQY [WCIL], the pKd (as a rule, the Kd on a negative log10 scale, so that one unit is a factor of ten) at LC3B (ITC, 25°C, pH 7.0, 0.4 mM peptide into 0.020 mM protein, one-site model) is 6.52.
For EDEWCVLQY, the “interaction with LC3B, core motif combinations” value with 6xHis-tagged LC3B was “increased the interaction of PLEKHM1‐LIR with LC3B”.
For ESDWVAVRP [JMY, LIR peptide 10–18], the “preference GABARAP versus LC3B” value in test [1] is “strong preference for GABARAP versus LC3B”.
The sequence GAMGPQQEDEAVNVQYPD [PLEKHM1‐LIR W635A] yielded a ΔH at LC3B (setting [2]) of -0.8 ± 0.1 kcal/mol. Further, on LC3B (ITC, 25°C, pH 7.0), the ΔG is -5.44 kcal/mol, the ΔS entry was “+15.4 cal mol^−1 K^−1” and the “−T × ΔS” value was -4.59 kcal/mol. In addition, the “N (number of binding sites)” value at LC3B (setting [3]) was 1 ^a. For the same sequence, at GABARAP (ITC, 25°C, pH 7.0), the ΔH is -1.1 ± 0.1 kcal/mol, the ΔG is -5.40 kcal/mol, the ΔS result is “+14.4 cal mol^−1 K^−1” and the “−T × ΔS” value was -4.29 kcal/mol. Also, the “N (number of binding sites)” value at GABARAP (setting [3]) was 1 ^a.
Turning to “GAMGPQQEDEWCILQYPD [PLEKHM1‐LIR VNV‐CIL]”, the ΔH at LC3B (setting [2]) was -7.9 ± 0.1 kcal/mol. At LC3B (ITC, 25°C, pH 7.0), the KA is listed as 3.03 ± 0.27 ×10^6 M^−1, the “N (number of binding sites)” value turned out to be 1.06 ± 0.01, the ΔG is -8.84 kcal/mol and the ΔS result is “+3.30 cal mol^−1 K^−1”. For the same sequence, at LC3B (ITC, 25°C, pH 7.0), the “−T × ΔS” value was -0.98 kcal/mol. On GABARAP (ITC, 25°C, pH 7.0), the ΔH is -9.2 ± 0.1 kcal/mol, the KA was 11.3 ± 0.38 ×10^6 M^−1, the “N (number of binding sites)” value is on record as 1.07 ± 0.01 and the ΔG is -9.62 kcal/mol. On GABARAP (ITC, 25°C, pH 7.0), the ΔS result is listed as “+1.49 cal mol^−1 K^−1” and the “−T × ΔS” value is -0.44 kcal/mol.
With GAMGPQQEDEWGNVQYPD [PLEKHM1‐LIR V636G], the ΔH on LC3B (setting [2]) is -1.7 ± 0.1 kcal/mol. Besides, at LC3B (ITC, 25°C, pH 7.0), the ΔG is -5.42 kcal/mol, the ΔS entry is given as “+12.4 cal mol^−1 K^−1” and the “−T × ΔS” value was -3.70 kcal/mol. For the same sequence, the “N (number of binding sites)” value on LC3B (setting [3]) is 1 ^a. Besides, on GABARAP (ITC, 25°C, pH 7.0), the ΔH is -7.5 ± 0.1 kcal/mol, the KA is on record as 0.02 ± 0.00 ×10^6 M^−1, the ΔG was -5.83 kcal/mol and the ΔS was −5.66 cal mol^−1 K^−1. At GABARAP (ITC, 25°C, pH 7.0), the “−T × ΔS” value is listed as “+1.69 kcal mol^−1”. The “N (number of binding sites)” value on GABARAP (setting [3]) is 1 ^a.
As for GAMGPQQEDEWVGVQYPD [PLEKHM1‐LIR N637G], the ΔH on LC3B (setting [2]) was -1.4 ± 0.1 kcal/mol. Moreover, on LC3B (ITC, 25°C, pH 7.0), the KA was 0.02 ± 0.01 ×10^6 M^−1, the ΔG was -5.87 kcal/mol, the ΔS result is given as “+15.0 cal mol^−1 K^−1” and the “−T × ΔS” value was -4.47 kcal/mol. Also, the “N (number of binding sites)” value on LC3B (setting [3]) is reported as 1 ^a. Moreover, at GABARAP (ITC, 25°C, pH 7.0), the ΔH was -6.7 ± 0.1 kcal/mol, the KA is given as 0.13 ± 0.01 ×10^6 M^−1, the “N (number of binding sites)” value worked out at 1.17 ± 0.04 and the ΔG was -6.97 kcal/mol. Further, on GABARAP (ITC, 25°C, pH 7.0), the ΔS entry is listed as “+1.07 cal mol^−1 K^−1” and the “−T × ΔS” value was -0.32 kcal/mol.
With TDDFVLVPH [ULK2, LIR peptide 350–358], the “preference GABARAP versus LC3B” value in test [1] was “clear specificity towards GABARAP versus LC3B”.
Same read-out and setting: the same measure for TDDFVMVPA [ULK1, LIR peptide 354–362]: “clear specificity towards GABARAP versus LC3B”.
